According to patent publication US9290481B2, “Monocyclic heteroaryl cycloalkyldiamine derivatives” (NOVARTIS AG, priority 2012, dated 2016):

Assays:
OCl-Ly3 cells = test: B-cell lymphoma cell proliferation (WST-1 assay), OCl-Ly3; format: cell-based; details: 4 days of incubation
Procedure: Cell proliferation was determined using the WST-1 assay (Roche, Mannheim, Germany), which measures the metabolic activity of the cells. […] The cell proliferation reagent WST-1 (10 μl/well) was added to the cells for 1-2 hours depending on the cell type which were cultured in 200 μl of medium. The absorbance was then measured with an enzyme-linked immunosorbent assay plate reader at a wavelength of 450 nm.

OCl-Ly10 cells = test: B-cell lymphoma cell proliferation (WST-1 assay), OCl-Ly10; format: cell-based; details: 72 h, 3 days of incubation
Procedure: Cell proliferation was determined using the WST-1 assay (Roche, Mannheim, Germany), which measures the metabolic activity of the cells. Briefly, 5×10^5 TMD-8, OCl-Ly3, and OCl-Ly10 cells/well and 10×10^5 HBL-1 cells/well were seeded in triplicate in 96-well plates and were incubated with various concentrations of compounds to be tested for 3 days. The cell proliferation reagent WST-1 (10 μl/well) was added to the cells for 1-2 hours depending on the cell type which were cultured in 200 μl of medium. The absorbance was then measured with an enzyme-linked immunosorbent assay plate reader at a wavelength of 450 nm.

- GI50 (OCl-Ly3 cells): No inhibition
- GI50 (OCl-Ly10 cells): 25 nM
Compound: NC(=O)c1nnc(N[C@@H]2CCCC[C@@H]2N)nc1Nc1cccc2cc[nH]c12 [Example 1.1, 3-((1R,2S)-2-Amino-cyclohexylamino)-5-(1H-indol-7-ylamino)-[1,2,4]triazine-6-carboxylic acid amide]
